Holding throughout (assay type): biochemical
One experiment deals with PAK1 (Homo sapiens, UniProt Q13153). Nature of the experiment: Z'Lyte fluorescence-based (FRET) kinase assay, PAK1. Conditions: 50 μM ATP (Km apparent), 1 hr room temperature, 1% DMSO. The method, then:
(§1) A fluorescence-based assay format is used to determine IC50 values of test compounds in vitro. Purified PAK kinase is incubated with ATP, and a test compound at various concentrations and a substrate peptide containing two fluorophores. In a second step, the reaction mix is incubated with a site-specific protease that cleaves non-phosphorylated but not phosphorylated substrate peptide, disrupting the FRET signal generated by the two fluorophores in the cleaved peptide (Z′Lyte™ Kinase assay platform; Life Technologies).
(§2) Reagents: 50 mM HEPES, pH 7.5; 0.01% BRIJ-35; 10 mM MgCl2; 1 mM EGTA, 2 uM substrate peptide Ser/Thr20 (proprietary Life Technologies Sequence), PAK enzyme [2.42-30.8 ng for PAK1, 0.29-6 ng for PAK2, 1.5-20 ng for PAK3 and 0.1-0.86 ng for PAK4; actual enzyme amounts depend on lot activity of the enzyme preparation]
(§3) Test compounds are dissolved in DMSO at various concentrations; the final DMSO concentration in the assay reaction is 1%.
(§4) ATP concentration at Km apparent is used in the assay [50 μM ATP for PAK1 assay, 75 μM ATP for PAK2 assay, 100 μM ATP for PAK3 assay, 5 μM ATP for PAK-4 assay] in a total assay volume of […] Assay reactions are incubated at room temperature for 1 hr. Following the kinase reaction, 5 μl of 1:256 dilution of development solution A (Life Technologies) is added and the reaction mix is incubated for an additional 1 hr at room temperature.
(§5) Plates are analyzed in a standard fluorescence plate reader (Tecan or equivalent) using an excitation wavelength of 400 nm and emission wavelengths of 445 nm and 520 nm. Inhibition of kinase reaction is determined by emission ratio=emission@445 nm/emission@520 nm

The target in another experiment is PAK2 (Homo sapiens, UniProt Q13177). Nature of the experiment: Z'Lyte fluorescence-based (FRET) kinase assay, PAK2. To be noted: 75 μM ATP (Km apparent), 1 hr room temperature, 1% DMSO. As for the experimental part:
as §1, §2, §3, §4, §5

The next experiment addresses PAK3 (Homo sapiens, UniProt O75914). Nature of the experiment: Z'Lyte fluorescence-based (FRET) kinase assay, PAK3. Conditions: 100 μM ATP (Km apparent), 1 hr room temperature, 1% DMSO. As for the experimental part: as §1, §2, §3, §4, §5
The target of another experiment is PAK4 (Homo sapiens, UniProt O96013). In words: Z'Lyte fluorescence-based (FRET) kinase assay, PAK4. Conditions: 5 μM ATP (Km apparent), 1 hr room temperature, 1% DMSO. As for the experimental part:
as §1, §2, §3, §4, §5

For another experiment, the system named is PAK1, PAK2, PAK3, PAK-4. In words: PAK isoform inhibition profile of example compounds. Conditions: classification of example compounds in the description; underlying IC50 data in Table 8.
Description: In some embodiments, the PAK inhibitor is a Group I PAK inhibitor that inhibits, for example, one or more Group I PAK polypeptides, for example, PAK1, PAK2, and/or PAK3. […] In some embodiments, the PAK inhibitor is a PAK2 inhibitor. In some embodiments, the PAK inhibitor is a PAK3 inhibitor. In some embodiments, the PAK inhibitor is a mixed PAK1/PAK3 inhibitor. […] In some embodiments, the PAK inhibitor is a Group II PAK inhibitor that inhibits one or more Group II PAK polypeptides, for example PAK-4, PAK5, and/or PAK6. In some embodiments, the PAK inhibitor is a PAK4 inhibitor. In some embodiments, the PAK inhibitor is a PAK5 inhibitor. In some embodiments, the PAK inhibitor is a PAK6 inhibitor.
as §1, §2, §3, §4, §5

What is called IC50 is the concentration needed to halve the response being measured.

Sequence of PAK3 (O75914 whole entry): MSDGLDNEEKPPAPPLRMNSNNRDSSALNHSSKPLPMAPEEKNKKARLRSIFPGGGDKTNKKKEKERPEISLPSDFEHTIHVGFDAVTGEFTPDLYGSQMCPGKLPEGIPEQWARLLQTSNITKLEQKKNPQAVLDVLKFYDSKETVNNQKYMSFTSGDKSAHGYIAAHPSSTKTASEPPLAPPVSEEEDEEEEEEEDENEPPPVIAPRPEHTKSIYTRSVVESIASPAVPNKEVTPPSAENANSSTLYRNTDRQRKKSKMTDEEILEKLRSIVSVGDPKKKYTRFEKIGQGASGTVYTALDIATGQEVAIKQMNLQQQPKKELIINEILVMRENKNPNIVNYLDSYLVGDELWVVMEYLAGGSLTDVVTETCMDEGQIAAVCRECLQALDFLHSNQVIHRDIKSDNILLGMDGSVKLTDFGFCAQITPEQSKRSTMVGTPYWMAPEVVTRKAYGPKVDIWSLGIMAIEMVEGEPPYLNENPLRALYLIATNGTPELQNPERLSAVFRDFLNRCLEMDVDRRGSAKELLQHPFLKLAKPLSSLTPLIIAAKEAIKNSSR
Sequence of PAK2 (Q13177 whole entry): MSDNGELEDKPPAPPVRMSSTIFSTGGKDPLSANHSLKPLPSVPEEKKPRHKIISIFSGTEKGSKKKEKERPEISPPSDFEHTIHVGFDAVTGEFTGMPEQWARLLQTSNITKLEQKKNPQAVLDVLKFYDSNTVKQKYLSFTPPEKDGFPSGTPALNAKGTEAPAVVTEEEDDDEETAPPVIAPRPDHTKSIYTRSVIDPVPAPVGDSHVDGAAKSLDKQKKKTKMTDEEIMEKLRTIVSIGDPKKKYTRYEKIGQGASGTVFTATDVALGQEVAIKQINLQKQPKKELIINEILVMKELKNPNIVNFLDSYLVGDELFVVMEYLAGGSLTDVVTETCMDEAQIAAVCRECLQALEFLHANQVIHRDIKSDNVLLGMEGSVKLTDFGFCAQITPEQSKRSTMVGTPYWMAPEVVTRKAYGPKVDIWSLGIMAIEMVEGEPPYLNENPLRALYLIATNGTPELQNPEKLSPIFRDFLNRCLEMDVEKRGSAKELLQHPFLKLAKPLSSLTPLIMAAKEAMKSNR
Sequence of PAK1 (Q13153 whole entry): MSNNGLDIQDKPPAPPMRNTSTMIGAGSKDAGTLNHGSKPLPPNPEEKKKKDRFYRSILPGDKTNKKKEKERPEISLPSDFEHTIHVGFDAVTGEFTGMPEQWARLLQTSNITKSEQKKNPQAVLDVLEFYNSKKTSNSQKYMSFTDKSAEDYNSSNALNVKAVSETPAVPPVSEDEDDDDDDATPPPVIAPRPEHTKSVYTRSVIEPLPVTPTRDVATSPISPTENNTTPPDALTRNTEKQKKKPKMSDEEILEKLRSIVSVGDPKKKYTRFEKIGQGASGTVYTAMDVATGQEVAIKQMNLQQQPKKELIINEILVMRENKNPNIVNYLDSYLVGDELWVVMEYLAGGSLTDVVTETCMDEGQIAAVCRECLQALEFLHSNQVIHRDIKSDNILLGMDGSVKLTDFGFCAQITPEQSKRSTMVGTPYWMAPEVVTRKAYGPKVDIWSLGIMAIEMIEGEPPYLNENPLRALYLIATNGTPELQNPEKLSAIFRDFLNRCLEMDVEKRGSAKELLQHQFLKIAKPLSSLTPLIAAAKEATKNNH
Sequence of PAK4 (O96013 whole entry): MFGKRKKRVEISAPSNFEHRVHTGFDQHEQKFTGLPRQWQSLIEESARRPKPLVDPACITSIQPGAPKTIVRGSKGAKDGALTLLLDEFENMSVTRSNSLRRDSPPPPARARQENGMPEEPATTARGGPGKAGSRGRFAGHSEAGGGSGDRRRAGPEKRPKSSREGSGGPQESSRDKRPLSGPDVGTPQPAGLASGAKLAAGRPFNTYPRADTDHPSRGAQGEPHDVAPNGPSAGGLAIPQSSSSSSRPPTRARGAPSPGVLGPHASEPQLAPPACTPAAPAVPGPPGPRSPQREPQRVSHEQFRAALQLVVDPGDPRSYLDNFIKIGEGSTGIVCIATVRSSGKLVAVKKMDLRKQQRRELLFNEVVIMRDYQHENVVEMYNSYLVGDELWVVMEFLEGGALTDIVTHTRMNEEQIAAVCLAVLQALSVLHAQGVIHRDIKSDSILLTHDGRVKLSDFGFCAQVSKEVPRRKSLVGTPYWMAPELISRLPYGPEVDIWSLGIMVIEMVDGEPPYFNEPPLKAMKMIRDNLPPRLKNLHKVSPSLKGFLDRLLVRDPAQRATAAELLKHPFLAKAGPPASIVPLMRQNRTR

For `CN1CCN(c2ccc(Nc3ncc4ccc(=O)n(Cc5c(F)cccc5F)c4n3)cc2)CC1` [Compound 58], the IC50 at PAK1 is < 1 µM; at PAK2, 1 to 10 µM; at PAK3 it was 1 to 10 µM; at PAK4 it was 1 to 10 µM. The “PAK inhibitor type (isoform profile)” value in the experiment on PAK1, PAK2, PAK3, PAK-4 was “PAK1 inhibitor”.
For `COc1cccc(F)c1Cn1c(=O)ccc2cnc(Nc3ccc(N4CCN(C)CC4)cc3)nc21` [Compound 61], the half-maximal inhibitory concentration (IC50) on PAK1 is < 1 µM; on PAK2 it was 1 to 10 µM; at PAK3 it was 1 to 10 µM; at PAK4, < 1 µM. Besides, the “PAK inhibitor type (isoform profile)” value in the experiment with PAK1, PAK2, PAK3, PAK-4 is listed as “mixed PAK1/PAK-4 inhibitor”.
With `CN1CCN(c2ccc(Nc3ncc4ccc(=O)n(Cc5ccccc5-c5cccs5)c4n3)cc2)CC1` [Compound 77], the IC50 was < 1 µM on PAK1, < 1 µM on PAK2, < 1 µM on PAK3 and 1 to 10 µM at PAK4. Further, in the experiment on PAK1, PAK2, PAK3, PAK-4, the “PAK inhibitor type (isoform profile)” value is “inhibits all three Group I PAK isoforms (PAK1, 2 and PAK3) with equal or similar potency”.
Turning to `CC(C)CNc1ccc(-c2ccnc(Nc3ccc(N4CCN(C)CC4)cc3)n2)cn1` [Compound 104], the IC50 at PAK1 was 1 to 10 µM; on PAK2, 1 to 10 µM; on PAK3 it was > 10 µM; on PAK4, < 1 µM.
As for `CN1CCN(c2ccc(Nc3ncc4ccc(=O)n(CCc5ccccc5C(F)(F)F)c4n3)cc2)CC1` [Compound 66], the IC50 at PAK1 was < 1 µM; on PAK2 it was < 1 µM; at PAK3, 1 to 10 µM; on PAK4, < 1 µM. Moreover, in the experiment on PAK1, PAK2, PAK3, PAK-4, the “PAK inhibitor type (isoform profile)” value is listed as “mixed PAK1/PAK2/PAK-4 inhibitor”.
Consider `CN1CCN(c2ccc(Nc3nccc(-c4ccc(NCCN)nc4)n3)cc2)CC1.Cl` [Compound 94, N-(5-{2-[4-(4-Methyl-piperazin-1-yl)-phenylamino]-pyrimidin-4-yl}-pyridin-2-yl)-ethane-1,2-diamine hydrochloride], for which the IC50 is < 1 µM at PAK1, 1 to 10 µM at PAK2, 1 to 10 µM at PAK3 and < 1 µM on PAK4. Further, the “PAK inhibitor type (isoform profile)” value in the experiment on PAK1, PAK2, PAK3, PAK-4 was “mixed PAK1/PAK-4 inhibitor”.
For the compound `CN1CCN(c2ccc(Nc3ncc4ccc(=O)n(Cc5c(Cl)cccc5C5CC5)c4n3)cc2)CC1` [Compound 84], the IC50 was < 1 µM at PAK1, < 1 µM on PAK2, < 1 µM on PAK3 and 1 to 10 µM at PAK4. Moreover, the “PAK inhibitor type (isoform profile)” value in the experiment with PAK1, PAK2, PAK3, PAK-4 was “inhibits all three Group I PAK isoforms (PAK1, 2 and PAK3) with equal or similar potency”.
For the compound `CN1CCN(c2ccc(Nc3ncc4ccc(=O)n(Cc5c(Cl)cccc5-c5cccs5)c4n3)cc2)CC1` [Compound 83], the IC50 is 1 to 10 µM on PAK1, > 10 µM at PAK2, > 10 µM on PAK3 and > 10 µM at PAK4.
As to `CN1CCN(c2ccc(Nc3ncc4cc(-c5ccccc5)c(=O)n(Cc5ccccc5C(F)(F)F)c4n3)cc2)CC1` [Compound 119], the IC50 at PAK1 is < 1 µM; at PAK2 it was < 1 µM; at PAK3, < 1 µM; at PAK4, > 10 µM. Further, in the experiment with PAK1, PAK2, PAK3, PAK-4, the “PAK inhibitor type (isoform profile)” value was “inhibits all three Group I PAK isoforms (PAK1, 2 and PAK3) with equal or similar potency”.
As to `CN1CCN(c2cccc(Nc3nccc(-c4ccc(NCCN)nc4)n3)c2)CC1` [Compound 112], the concentration for half-maximal inhibition (IC50) is 1 to 10 µM on PAK1, 1 to 10 µM on PAK2, > 10 µM on PAK3 and < 1 µM on PAK4.
Turning to `CN1CCN(c2ccc(Nc3nccc(-c4ccc(NCCN)nc4)n3)cc2F)CC1` [Compound 113], the IC50 on PAK1 was < 1 µM; at PAK2, 1 to 10 µM; on PAK3 it was 1 to 10 µM; on PAK4, < 1 µM. The “PAK inhibitor type (isoform profile)” value in the experiment with PAK1, PAK2, PAK3, PAK-4 is listed as “mixed PAK1/PAK-4 inhibitor”.
Regarding `CN1CCN(c2ccc(Nc3ncc4ccc(=O)n(Cc5c(Cl)cccc5-c5ccccc5)c4n3)cc2)CC1` [Compound 82], the IC50 at PAK1 was 1 to 10 µM; at PAK2 it was > 10 µM; at PAK3 it was > 10 µM; at PAK4, 1 to 10 µM.
Regarding `CN1CCN(c2ccc(Nc3ncc4ccc(=O)n(Cc5ccccc5-c5ccccc5)c4n3)cc2)CC1` [Compound 68], the IC50 on PAK1 was < 1 µM; on PAK2, < 1 µM; on PAK3, < 1 µM; at PAK4, 1 to 10 µM. For the same compound, in the experiment on PAK1, PAK2, PAK3, PAK-4, the “PAK inhibitor type (isoform profile)” value is “inhibits all three Group I PAK isoforms (PAK1, 2 and PAK3) with equal or similar potency”.
As to `CN1CCN(c2ccc(Nc3nccc(-c4ccc(NCCN5CCCCC5)nc4)n3)cc2)CC1` [Compound 100], the concentration for half-maximal inhibition (IC50) at PAK1 was 1 to 10 µM; on PAK2, 1 to 10 µM; on PAK3, > 10 µM; at PAK4, < 1 µM.
On to `CC(C)Oc1ccccc1Cn1c(=O)ccc2cnc(Nc3ccc(N4CCN(C)CC4)cc3)nc21` [Compound 69], for which the IC50 at PAK1, at PAK2, at PAK3 and at PAK4 was < 1 µM throughout. In addition, the “PAK inhibitor type (isoform profile)” value with PAK1, PAK2, PAK3, PAK-4 is “mixed PAK1/PAK2/PAK3/PAK-4 inhibitor”.
Consider `CN1CCN(c2ccc(Nc3ncc4ccc(=O)n(Cc5c(Cl)cccc5Cl)c4n3)cc2)CC1` [Compound 57], for which the IC50 is < 1 µM on PAK1, < 1 µM on PAK2, 1 to 10 µM at PAK3 and < 1 µM at PAK4. Further, the “PAK inhibitor type (isoform profile)” value in the experiment with PAK1, PAK2, PAK3, PAK-4 is recorded as “mixed PAK1/PAK2/PAK-4 inhibitor”.
Take `Cc1cccc(Cl)c1Cn1c(=O)ccc2cnc(Nc3ccc(N4CCN(C)CC4)cc3)nc21` [Compound 67]: the concentration for half-maximal inhibition (IC50) at PAK1 is < 1 µM; on PAK2, 1 to 10 µM; on PAK3, 1 to 10 µM; at PAK4, < 1 µM.
For `CCNc1ccc(-c2ccnc(Nc3ccc(N4CCN(C)CC4)cc3)n2)cn1` [Compound 109], the IC50 was 1 to 10 µM at PAK1, > 10 µM at PAK2, > 10 µM on PAK3 and < 1 µM on PAK4.
With `CC(c1ccccc1C(F)(F)F)n1c(=O)ccc2cnc(Nc3ccc(N4CCN(C)CC4)cc3)nc21` (stereo not drawn) [Compound 70], the IC50 at PAK1 is 1 to 10 µM; at PAK2, > 10 µM; on PAK3, > 10 µM; at PAK4, 1 to 10 µM.
Take `COc1cc(Nc2nccc(-c3ccc(NCCN)nc3)n2)cc(OC)c1OC` [Compound 95]: the IC50 at PAK1 was < 1 µM; on PAK2, 1 to 10 µM; at PAK3, 1 to 10 µM; on PAK4, < 1 µM.
As to `CN1CCN(c2ccc(Nc3nccc(-c4ccc(N(C)CCN)nc4)n3)cc2)CC1` [Compound 110], the IC50 on PAK1 is 1 to 10 µM; on PAK2 it was 1 to 10 µM; at PAK3, > 10 µM; on PAK4, 1 to 10 µM.
Regarding `CN1CCN(c2ccc(Nc3nccc(-c4ccc(N)nc4)n3)cc2)CC1` [Compound 108], the IC50 was 1 to 10 µM on PAK1, 1 to 10 µM on PAK2, > 10 µM at PAK3 and 1 to 10 µM at PAK4.
`CN1CCN(c2ccc(Nc3ncc4ccc(=O)n(Cc5ccccc5-c5cc(C(F)(F)F)nn5C)c4n3)cc2)CC1` [Compound 76]: the IC50 on PAK1 is 1 to 10 µM; at PAK2, 1 to 10 µM; on PAK3, 1 to 10 µM; on PAK4, > 10 µM.
`COc1cccc2c1C(n1c(=O)ccc3cnc(Nc4ccc(N5CCN(C)CC5)cc4)nc31)CC2` (stereo not drawn) [Compound 1, 8-(7-methoxy-2,3-dihydro-1H-inden-1-yl)-2-(4-(4-methylpiperazin-1-yl)phenylamino)pyrido[2,3-d]pyrimidin-7(8H)-one]: the IC50 on PAK1 is 1 to 10 µM; on PAK2 it was > 10 µM; on PAK3, > 10 µM; at PAK4, 1 to 10 µM.
For the compound `CC(=O)N1CCN(c2ccc(Nc3nccc(-c4ccc(NCCN)nc4)n3)cc2)CC1` [Compound 115], the IC50 at PAK1 was > 10 µM; at PAK2, > 10 µM; at PAK3, > 10 µM; at PAK4 it was < 1 µM.

(Values after US8674095B2, “Compounds for treating neuropsychiatric conditions” (Afraxis Holdings, Inc., priority 2008, dated 2014).)
